Data published in BindingDB's records for doi:10.1021/jm031121n (Novo Nordisk, 2004).

Key:
[1] = biological target: Glycogen phosphorylase, liver form (Sus scrofa); assay: In vitro inhibition of pig liver Glycogen phosphorylase A.
[2] = biological target: Glycogen phosphorylase, muscle form (Oryctolagus cuniculus) (UniProt P00489); assay: Inhibition of Rabbit muscle glycogen phosphorylase B.
[3] = biological target: Glycogen phosphorylase, muscle form (Oryctolagus cuniculus) (UniProt P00489); assay: Inhibitory activity against rabbit Muscle glycogen phosphorylase b
[4] = Inhibitory activity against rabbit muscle glycogen phosphorylase a in the absence of AMP

Chain of Glycogen phosphorylase, muscle form (Oryctolagus cuniculus) (P00489 whole entry, looked up): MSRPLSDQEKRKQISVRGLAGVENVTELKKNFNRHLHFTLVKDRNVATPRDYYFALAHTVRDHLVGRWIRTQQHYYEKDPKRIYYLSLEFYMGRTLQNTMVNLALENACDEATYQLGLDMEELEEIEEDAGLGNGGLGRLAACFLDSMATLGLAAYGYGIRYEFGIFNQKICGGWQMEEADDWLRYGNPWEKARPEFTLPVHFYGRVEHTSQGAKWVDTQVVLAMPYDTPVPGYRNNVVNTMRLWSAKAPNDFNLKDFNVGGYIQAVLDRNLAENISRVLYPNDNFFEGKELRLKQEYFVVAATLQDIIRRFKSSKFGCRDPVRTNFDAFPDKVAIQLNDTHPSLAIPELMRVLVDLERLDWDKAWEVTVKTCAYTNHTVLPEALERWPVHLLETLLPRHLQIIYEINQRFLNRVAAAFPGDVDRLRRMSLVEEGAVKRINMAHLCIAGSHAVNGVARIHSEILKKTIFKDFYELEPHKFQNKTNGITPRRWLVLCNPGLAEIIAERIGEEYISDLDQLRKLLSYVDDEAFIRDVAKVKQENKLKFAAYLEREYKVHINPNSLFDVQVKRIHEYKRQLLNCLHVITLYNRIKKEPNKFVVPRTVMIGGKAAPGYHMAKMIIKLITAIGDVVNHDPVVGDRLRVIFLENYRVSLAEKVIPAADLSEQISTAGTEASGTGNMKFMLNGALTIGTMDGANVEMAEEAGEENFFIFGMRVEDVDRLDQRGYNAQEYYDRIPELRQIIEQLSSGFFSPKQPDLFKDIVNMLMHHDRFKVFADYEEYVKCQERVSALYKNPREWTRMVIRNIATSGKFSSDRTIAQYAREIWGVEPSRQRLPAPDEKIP

Row | Compound | IC50 [1] | also measured
1 | O=C(Nc1ccccc1Oc1ccc(C(=O)O)c(C(=O)O)c1)c1ccccc1 [4-(2-Benzoylamino-phenoxy)-phthalic acid] | > 200 µM | –
2 | O=C(Nc1ccccc1Oc1ccc(C(=O)O)c(C(=O)O)c1)c1ccc(Cl)c(Cl)c1 [4-[2-(3,4-Dichloro-benzoylamino)-phenoxy]-phthalic acid] | > 50 µM | –
3 | CC(=O)c1cccc(C(=O)Nc2ccccc2Oc2ccc(C(=O)O)c(C(=O)O)c2)c1 [4-[2-(3-Acetyl-benzoylamino)-phenoxy]-phthalic acid] | – | IC50 [2]: 50 µM
4 | O=C(O)c1cccc(C(=O)Nc2ccccc2Oc2ccc(C(=O)O)c(C(=O)O)c2)c1 [4-[2-(3-Carboxy-benzoylamino)-phenoxy]-phthalic acid] | > 100 µM | IC50 [2]: > 200 µM
5 | COc1cccc(C(=O)Nc2ccccc2Oc2ccc(C(=O)O)c(C(=O)O)c2)c1 [4-[2-(3-Methoxy-benzoylamino)-phenoxy]-phthalic acid] | – | IC50 [2]: 50 µM
6 | O=C(Nc1cc(C(F)(F)F)ccc1Oc1ccc(C(=O)O)c(C(=O)O)c1)c1cccc([N+](=O)[O-])c1 [4-[2-(3-Nitro-benzoylamino)-4-trifluoromethyl-phenoxy]-phthalic acid] | 1.8 µM | –
7 | O=C(Nc1ccccc1Oc1ccc(C(=O)O)c(C(=O)O)c1)c1ccc(Cl)cc1 [4-[2-(4-Chloro-benzoylamino)-phenoxy]-phthalic acid] | > 200 µM | –
8 | Cc1ccc(C(=O)Nc2ccccc2Oc2ccc(C(=O)O)c(C(=O)O)c2)cc1 [4-[2-(4-Methyl-benzoylamino)-phenoxy]-phthalic acid] | > 30 µM | –
9 | CC(=O)Nc1ccc(Oc2ccc(C(=O)O)c(C(=O)O)c2)c(NC(=O)c2cccc([N+](=O)[O-])c2)c1 [4-[4-Acetylamino-2-(3-nitro-benzoylamino)-phenoxy]-phthalic acid] | 0.14 µM | –
10 | O=C(Nc1ccc(Oc2ccc(C(=O)O)c(C(=O)O)c2)c(NC(=O)c2cccc([N+](=O)[O-])c2)c1)c1ccccc1 [4-[4-Benzoylamino-2-(3-nitro-benzoylamino)-phenoxy]-phthalic acid] | 0.12 µM | –
11 | O=C(Nc1cc(Br)ccc1Oc1ccc(C(=O)O)c(C(=O)O)c1)c1cccc([N+](=O)[O-])c1 [4-[4-Bromo-2-(3-nitro-benzoylamino)-phenoxy]-phthalic acid] | 0.25 µM | –
12 | N#Cc1ccc(Oc2ccc(C(=O)O)c(C(=O)O)c2)c(NC(=O)c2cccc([N+](=O)[O-])c2)c1 [4-[4-Cyano-2-(3-nitro-benzoylamino)-phenoxy]-phthalic acid] | 2.2 µM | –
13 | O=C(Nc1cc(F)ccc1Oc1ccc(C(=O)O)c(C(=O)O)c1)c1cccc([N+](=O)[O-])c1 [4-[4-Fluoro-2-(3-nitro-benzoylamino)-phenoxy]-phthalic acid] | 2.5 µM | –
14 | Cc1ccc(Oc2ccc(C(=O)O)c(C(=O)O)c2)c(NC(=O)c2cccc([N+](=O)[O-])c2)c1 [4-[4-Methyl-2-(3-nitro-benzoylamino)-phenoxy]-phthalic acid] | 0.45 µM | –
15 | Cc1cc(Oc2ccc(C(=O)O)c(C(=O)O)c2)c(NC(=O)c2cccc([N+](=O)[O-])c2)cc1NC(=O)c1cccc([N+](=O)[O-])c1 [4-[5-Methyl-2,4-bis-(3-nitro-benzoylamino)-phenoxy]-phthalic acid] | 0.7 µM | –
16 | O=C1NC(=O)[C@]2(C[C@H](CO)[C@@H](O)[C@H](O)[C@H]2O)N1 [(6S,7S,8R,9R)-6,7,8-Trihydroxy-9-hydroxymethyl-1,3-diaza-spiro[4.5]decane-2,4-dione] | – | Ki [3]: 3 µM
17 | CCN1C(C)=C(C(=O)OC(C)C)[C@@H](c2ccccc2)C(C(=O)O)=C1C(=O)O [(S)-1-Ethyl-6-methyl-4-phenyl-1,4-dihydro-pyridine-2,3,5-tricarboxylic acid 5-isopropyl ester] | – | Ki [4]: 0.011 µM
